Assay results: patent US3974137A, “Process for the preparation of 1-[L-(-)-γ-amino-α-hydroxybutyryl]-kanamycin A (RD-1341A)” (priority 1974, dated 1976)
In brackets after ≈: the same amount, converted by molar mass. Several values for one entry are separate records, joined by “and”; a condition that tells them apart may be missing. Identical values can stand only once. Counter-ions that a name gives are not always drawn. Like-named read-outs stand apart in the source and are kept apart here.

Assays:
[1] = Bioassay of column fractions (plate assays); type: cell-based; conditions: pooled column fractions; BB-K8: average of 4 plate assays, ± standard deviation
Excerpt: *Average of 4 plate assays, ± standard deviation.

[2] = test system: gram-positive and gram-negative bacteria; assay: Antibacterial activity (MIC), overall comparison with kanamycin A; type: cell-based; conditions: in words
Excerpt: Illustrated below are two tables showing the minimal inhibitory concentrations (MIC's) of kanamycin A and compound IVa (BB-K8) against a variety of gram-positive and gram-negative bacteria as obtained by the Steers agar-dilution method (Table I) and the two-fold dilution method (Table 2). Mueller-Hinton Agar Medium was used in the study of Table 1 and Heart Infusion Broth was used in the study of Table 2.

Escherichia coli A-20520 [3] = assay: CD50 in lethally infected mice; type: in vivo, Escherichia coli (infected mice); conditions: for ED50: Escherichia coli, A20520, sc, read-out: CD50 (curative dose, 50%); for effectiveness in infected mice (words): kanamycin-resistant strain
Method: (§1) ^b CD50 =curative dose, 50% (mg./kg./treated × number of
(§2) treatments). Mice were treated subcutaneously at 1 and 4 hours
(§3) post-infection when 2 treatment were administered and at 0, 2, 4 and 6
(§4) hours post-infection when 4 treatment weree given. Other aspects of the
(§5) test were carried out as described by Price et al. (J. of Antibiotics

Escherichia coli A-15119 [4] = assay: CD50 in lethally infected mice; type: in vivo, Escherichia coli (infected mice); conditions: for ED50: Escherichia coli, A15119, sc, mice, subcutaneous, × 2 treatments (1 and 4 hours post-infection), test number 1, read-out: CD50 (curative dose, 50%); for effectiveness in infected mice (words): kanamycin A-sensitive strain
Method: as §1, §2, §3, §4, §5

[5] = test system: Staphylococcus aureus A-9537; assay: MIC, in vitro (Table 3); type: cell-based
Excerpt: (§6) ^a MIC =minimum inhibitory concentration (μg./ml.). Tests conducte
(§7) as described by Chisholm et al., (Antimicrob. Agents and
(§8) Chemotherapy-1969, p. 244, 1970) using Mueller-Hinten agar as the test

Escherichia coli A-20520 [6] = assay: MIC, in vitro (Table 3); type: cell-based
Excerpt: as §6, §7, §8

Escherichia coli A-15119 [7] = assay: MIC, in vitro (Table 3); type: cell-based; conditions: A15119, Mueller-Hinten agar, test number 1
Excerpt: as §6, §7, §8

[8] = test system: Staphylococcus aureus A-9537; assay: CD50 in lethally infected mice; type: in vivo, Staphylococcus aureus (infected mice); conditions: for ED50: Staphylococcus aureus, A9537, sc, mice, subcutaneous, × 2 treatments (1 and 4 hours post-infection), test number 1, read-out: CD50 (curative dose, 50%); for effectiveness in infected mice (words): kanamycin A-sensitive strain
Method: as §1, §2, §3, §4, §5

B. subtilis = assay: Relative potency, agar plate; type: cell-based; conditions: standard: kanamycin A free base
Method: Compound IV, as recovered from this process, is identical with authentic product obtained by the method described in co-pending application, Ser. No. 221,378. M.p. 194° (dec.) [α]D^21 +85° (c=2, H2 O). […] (standard: kanamycin A free base).

[9] = Hygroscopicity / water uptake on storage in air; type: physicochemical
[10] = mice, subcutaneous, × 4 treatments (0, 2, 4 and 6 hours post-infection), test number 2

NCC[C@H](O)C(=O)N[C@@H]1C[C@H](N)[C@@H](O[C@H]2O[C@H](CN)[C@@H](O)[C@H](O)[C@H]2O)[C@H](O)[C@H]1O[C@H]1O[C@H](CO)[C@@H](O)[C@H](N)[C@H]1O [Compound IV, 1-[L-(-)-γ-amino-α-hydroxybutyryl]-kanamycin A]
Bioassay [1]: 786±101 | antibacterial activity compared with kanamycin A [2]: excellent antibacterial activity that appears superior to kanamycin A itself | antibacterial activity compared with kanamycin A ([2]; listed as compound IV): superior to kanamycin A in activity, particularly against kanamycin A resistant organisms | ED50 (Escherichia coli A-20520 [3]; mice, subcutaneous, × 2 treatments (1 and 4 hours post-infection), test number 1): 66 mg/kg | ED50 (Escherichia coli A-20520 [3]; [10]): 5 mg/kg | effectiveness in infected mice (words) (Escherichia coli A-20520 [3]): marked protective action | times more active in 4-treatment regimen rather than in 2-treatment one (Escherichia coli A-20520 [3]; mice, 4-treatment vs 2-treatment regimen): approximately 10 times | ED50 (Escherichia coli A-15119 [4]): 2 mg/kg | effectiveness in infected mice (words) (Escherichia coli A-15119 [4]): equally effective | MIC ([5]; A9537, Mueller-Hinten agar, test number 1, read-out: MIC): 1 µg/mL (≈ 1.71 µM) | MIC (Escherichia coli A-20520 [6]; A20520, Mueller-Hinten agar, test number 1, read-out: MIC): 2 µg/mL (≈ 3.42 µM) | MIC (Escherichia coli A-15119 [7]): 2 µg/mL (≈ 3.42 µM) | ED50 [8]: 2 mg/kg | effectiveness in infected mice (words) [8]: equally effective | effectiveness in infected mice (words) ([8]; listed as compound IV): slightly less active than kanamycin A | Relative potency against B. subtilis (B. subtilis): 960 µg/mg

NCC1OC(OC2C(N)CC(N)C(OC3OC(CO)C(O)C(N)C3O)C2O)C(O)C(O)C1O (centres unmarked) [Kanamycin A]
Bioassay [1]: 809 | ED50 (Escherichia coli A-20520 [3]): 200 mg/kg | effectiveness in infected mice (words) (Escherichia coli A-20520 [3]): not very effective in vivo | CD50 (curative dose, 50%) (Escherichia coli A-20520 [3]; [10]): 200 mg./kg./treated × number of tr | ED50 (Escherichia coli A-15119 [4]): 4 mg/kg | effectiveness in infected mice (words) (Escherichia coli A-15119 [4]): equally effective | MIC ([5]; A9537): 2 µg/mL (≈ 4.13 µM) | MIC (Escherichia coli A-20520 [6]; A20520): 125 µg/mL (≈ 258 µM) | MIC (Escherichia coli A-15119 [7]): 4 µg/mL (≈ 8.26 µM) | ED50 [8]: 0.5 mg/kg | effectiveness in infected mice (words) [8]: equally effective

NCC[C@H](O)C(=O)N[C@@H]1C[C@H](N)[C@@H](O[C@H]2O[C@H](CN)[C@@H](O)[C@H](O)[C@H]2O)[C@H](O)[C@H]1O[C@H]1O[C@H](CO)[C@@H](O)[C@H](N)[C@H]1O [BB-K8^. 2H2 SO4, Disulfate Salt of 1-[L-(-)-γ-amino-α-hydroxybutyryl]-kanamycin A]
water content after storage in air ([9]; Karl Fisher, in air at room temperature for 18 hours): 9.55% and 9.89% | hygroscopicity ([9]; disulfate salt): hygroscopic but not deliquescent
